# Measurements reported in US10150767B2, “Therapeutic compounds and uses thereof” (priority 2014, dated 2018).
# Target: BRD4(BD1) (Homo sapiens (Human), UniProt O60885)
# Assay: BRD4 AlphaLisa binding assay
# Details: biotinylated H4-tetraacetyl peptide
# Text: IC50 Measurements for Inhibitors Using BRD4 AlphaLisa Binding Assay
row,IC50 [nM],Structure (SMILES)
1,180,"Cn1cc(-c2cccc(C(N)=O)c2)c2cc[nH]c2c1=O [Example 21, 3-(6-methyl-7-oxo-1H-pyrrolo[2,3-c]pyridin-4-yl)benzamide]"
2,150,"Cn1cc(-c2cccc(C#N)c2)c2cc[nH]c2c1=O [Example 23, 3-(6-methyl-7-oxo-1H-pyrrolo[2,3-c]pyridin-4-yl)benzonitrile]"
3,710,"Cn1cc(-c2ccc(CO)cc2)c2cc[nH]c2c1=O [Example 25, 4-[4-(hydroxymethyl)phenyl]-6-methyl-1H-pyrrolo[2,3-c]pyridin-7-one]"
4,84,"Cn1cc(-c2ccc(C(=O)N3CC(F)C3)cc2)c2cc[nH]c2c1=O [Example 27, 4-[4-(3-fluoroazetidine-1-carbonyl)phenyl]-6-methyl-1H-pyrrolo[2,3-c]pyridin-7-one]"
5,280,"Cn1cc(-c2ccc(C(=O)N3CCCC3)cc2)c2cc[nH]c2c1=O [Example 29, 6-methyl-4-[4-(pyrrolidine-1-carbonyl)phenyl]-1H-pyrrolo[2,3-c]pyridin-7-one]"
6,170,"CC1CCN(C(=O)c2ccc(-c3cn(C)c(=O)c4[nH]ccc34)cc2)CC1 [Example 31, 6-methyl-4-[4-(4-methylpiperidine-1-carbonyl)phenyl]-1H-pyrrolo[2,3-c]pyridin-7-one]"
7,320,"CC(=O)N1CCN(C(=O)c2ccc(-c3cn(C)c(=O)c4[nH]ccc34)cc2)CC1 [Example 32, 4-[4-(4-acetylpiperazine-1-carbonyl)phenyl]-6-methyl-1H-pyrrolo[2,3-c]pyridin-7-one]"
8,260,"Cn1cc(-c2ccc(C(=O)N3CCC(C(N)=O)CC3)cc2)c2cc[nH]c2c1=O [Example 33, 1-[4-(6-methyl-7-oxo-1H-pyrrolo[2,3-c]pyridin-4-yl)benzoyl]piperidine-4-carboxamide]"
9,51,"Cn1cc(-c2ccc(C(=O)Nc3cccnc3)cc2)c2cc[nH]c2c1=O [Example 34, 4-(6-methyl-7-oxo-1H-pyrrolo[2,3-c]pyridin-4-yl)-N-(3-pyridyl)benzamide]"
10,340,"CN(C(=O)c1ccc(-c2cn(C)c(=O)c3[nH]ccc23)cc1)c1ccccc1 [Example 36, N-methyl-4-(6-methyl-7-oxo-1H-pyrrolo[2,3-c]pyridin-4-yl)-N-phenyl-benzamide]"
11,200,"CN(CC#N)C(=O)c1ccc(-c2cn(C)c(=O)c3[nH]ccc23)cc1 [Example 38, N-(cyanomethyl)-N-methyl-4-(6-methyl-7-oxo-1H-pyrrolo[2,3-c]pyridin-4-yl)benzamide]"

# The next lines start with the molecule.
row,Structure (SMILES),IC50 [nM]
1,"Cn1cc(-c2ccccc2)c2cc[nH]c2c1=O [Example 1, 6-methyl-4-phenyl-1H-pyrrolo[2,3-c]pyridin-7(6H)-one]",540
2,"Cn1cc(-c2ccc3c(c2)CC(=O)N3)c2cc[nH]c2c1=O [Example 2, 6-methyl-4-(2-oxoindolin-5-yl)-1H-pyrrolo[2,3-c]pyridin-7-one]",210
3,"Cn1cc(-c2ccc3c(c2)CCCN3C(=O)OC(C)(C)C)c2cc[nH]c2c1=O [Example 4, tert-butyl 6-(6-methyl-7-oxo-1H-pyrrolo[2,3-c]pyridin-4-yl)-3,4-dihydro-2H-quinoline-1-carboxylate]",110
4,"Cn1cc(-c2ccc3c(c2)N2C(=O)CCC2C(=O)N3)c2cc[nH]c2c1=O (stereo not shown) [Example 9, 8-(6-methyl-7-oxo-6,7-dihydro-1H-pyrrolo[2,3-c]pyridin-4-yl)-3,3a-dihydropyrrolo[1,2-a]quinoxaline-1,4(2H,5H)-dione]",310
5,"CC1Nc2cc(-c3cn(C)c(=O)c4[nH]ccc34)ccc2NC1=O (stereo not shown) [Example 10, 3-methyl-6-(6-methyl-7-oxo-1H-pyrrolo[2,3-c]pyridin-4-yl)-3,4-dihydro-1H-quinoxalin-2-one]",110
6,"CC1CC(=O)Nc2ccc(-c3cn(C)c(=O)c4[nH]ccc34)cc2N1 (stereo not shown) [Example 13, 4-methyl-7-(6-methyl-7-oxo-1H-pyrrolo[2,3-c]pyridin-4-yl)-1,3,4,5-tetrahydro-1,5-benzodiazepin-2-one]",170
7,"CC(C)c1nc2cc(-c3cn(C)c(=O)c4[nH]ccc34)ccc2[nH]c1=O [Example 14, 3-isopropyl-6-(6-methyl-7-oxo-1H-pyrrolo[2,3-c]pyridin-4-yl)-1H-quinoxalin-2-one]",110
8,"Cn1cc(-c2ccc3c(c2)N2CCCC2CC(=O)N3)c2cc[nH]c2c1=O (stereo not shown) [Example 15, 2-(6-methyl-7-oxo-1H-pyrrolo[2,3-c]pyridin-4-yl)-5,7,7a,8,9,10-hexahydropyrrolo[2,1-d][1,5]benzodiazepin-6-one]",81
9,"Cn1cc(-c2ccc3c(c2)NC(c2cccs2)CC(=O)N3)c2cc[nH]c2c1=O (stereo not shown) [Example 17, 7-(6-methyl-7-oxo-1H-pyrrolo[2,3-c]pyridin-4-yl)-4-(2-thienyl)-1,3,4,5-tetrahydro-1,5-benzodiazepin-2-one]",58

# Target: BRD9 (Homo sapiens (Human), UniProt Q9H8M2)
# Assay: BRD9 AlphaLisa binding assay
# Details: biotinylated H4-tetraacetyl peptide
# Protocol: After 20 minutes incubation at room temperature AlphaLisa Streptavidin Acceptor Beads (Perkin-A[…]) and AlphaLisa Nickel donor beads (Perkin AS 10 ID) were added to a final concentration of 15 ug/mL each.
# Chain of BRD9 (Q9H8M2 134-239 limits assumed): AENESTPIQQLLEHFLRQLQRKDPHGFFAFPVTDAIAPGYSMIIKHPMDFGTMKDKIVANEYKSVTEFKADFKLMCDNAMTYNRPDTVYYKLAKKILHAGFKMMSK
row,Structure (SMILES),IC50 [nM]
1,"COCCNC(=O)c1ccc(-c2cn(C)c(=O)c3[nH]ccc23)cc1 [Example 3, N-(2-methoxyethyl)-4-(6-methyl-7-oxo-1H-pyrrolo[2,3-c]pyridin-4-yl)benzamide]",24
2,"Cn1cc(-c2ccc3c(c2)N(C(=O)OC(C)(C)C)CCC3)c2cc[nH]c2c1=O [Example 5, tert-butyl 7-(6-methyl-7-oxo-1H-pyrrolo[2,3-c]pyridin-4-yl)-3,4-dihydro-2H-quinoline-1-carboxylate]",130
3,"Cn1cc(-c2ccc(NC(=O)OC(C)(C)C)cc2)c2cc[nH]c2c1=O [Example 6, tert-butyl N-[4-(6-methyl-7-oxo-1H-pyrrolo[2,3-c]pyridin-4-yl)phenyl]carbamate]",85
4,"CC1CNc2cc(-c3cn(C)c(=O)c4[nH]ccc34)ccc2NC1=O (stereo not shown) [Example 11, 3-methyl-7-(6-methyl-7-oxo-1H-pyrrolo[2,3-c]pyridin-4-yl)-1,3,4,5-tetrahydro-1,5-benzodiazepin-2-one]",31
5,"Cn1cc(-c2ccc3c(c2)NCCC(=O)N3)c2cc[nH]c2c1=O [Example 12, 7-(6-methyl-7-oxo-1H-pyrrolo[2,3-c]pyridin-4-yl)-1,3,4,5-tetrahydro-1,5-benzodiazepin-2-one]",25
6,"CCCn1cc(-c2cccc(C(=O)N(C)C)c2)c2cc[nH]c2c1=O [Example 19, N,N-dimethyl-3-(7-oxo-6-propyl-1H-pyrrolo[2,3-c]pyridin-4-yl)benzamide]",238
7,"Cn1cc(-c2ccc(C(C)(C)O)cc2)c2cc[nH]c2c1=O [Example 39, 4-[4-(1-hydroxy-1-methyl-ethyl)phenyl]-6-methyl-1H-pyrrolo[2,3-c]pyridin-7-one]",21
8,"CC(C)(O)c1ccc(-c2cn(C3CC3)c(=O)c3[nH]ccc23)cc1 [Example 41, 6-cyclopropyl-4-(4-(2-hydroxypropan-2-yl)phenyl)-1H-pyrrolo[2,3-c]pyridin-7(6H)-one]",110
9,"CN1CCC(c2ccc(-c3cn(C)c(=O)c4[nH]ccc34)cc2)CC1 [Example 42, 6-methyl-4-[4-(1-methyl-4-piperidyl)phenyl]-1H-pyrrolo[2,3-c]pyridin-7-one]",53
10,"CN1CCC(Cc2ccc(-c3cn(C)c(=O)c4[nH]ccc34)cc2)CC1 [Example 45, 6-methyl-4-[4-[(1-methyl-4-piperidyl)methyl]phenyl]-1H-pyrrolo[2,3-c]pyridin-7-one]",64

# Target: CECR2 (Homo sapiens (Human), UniProt Q9BXF3)
# Assay: CECR2 TR-FRET binding assay
# Details: biotinylated probe compound 1001, TR-FRET
# Text: IC50 Measurements for Inhibitors Using CECR2 TR-FRET Binding Assay
# His/Flag epitope tagged CECR2424-538 was cloned, expressed, and purified to homogeneity.
# Chain of CECR2 (Q9BXF3 424-538 limits assumed): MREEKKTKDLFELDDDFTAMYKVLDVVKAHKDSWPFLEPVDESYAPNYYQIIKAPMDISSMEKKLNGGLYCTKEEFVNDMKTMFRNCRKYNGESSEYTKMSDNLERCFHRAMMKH
row,Structure (SMILES),IC50 [nM]
1,"COCCC(=O)Nc1ccc(-c2cn(C)c(=O)c3[nH]ccc23)cc1 [Example 7, 3-methoxy-N-[4-(6-methyl-7-oxo-1H-pyrrolo[2,3-c]pyridin-4-yl)phenyl]propanamide]",170
2,"CC1Oc2cc(-c3cn(C)c(=O)c4[nH]ccc34)ccc2NC1=O (stereo not shown) [Example 16, 2-methyl-7-(6-methyl-7-oxo-1H-pyrrolo[2,3-c]pyridin-4-yl)-4H-1,4-benzoxazin-3-one]",36
3,"CN(C)C(=O)c1ccc(-c2cn(C)c(=O)c3[nH]ccc23)cc1 [Example 18, N,N-dimethyl-4-(6-methyl-7-oxo-1H-pyrrolo[2,3-c]pyridin-4-yl)benzamide]",730
4,"CCn1cc(-c2cccc(C(=O)N(C)C)c2)c2cc[nH]c2c1=O [Example 20, 3-(6-ethyl-7-oxo-1H-pyrrolo[2,3-c]pyridin-4-yl)-N,N-dimethyl-benzamide]",1300
5,"CN1CCN(C(=O)c2ccc(-c3cn(C)c(=O)c4[nH]ccc34)cc2)CC1=O [Example 26, 6-methyl-4-(4-(4-methyl-3-oxopiperazine-1-carbonyl)phenyl)-1H-pyrrolo[2,3-c]pyridin-7(6H)-one]",240
6,"Cn1cc(-c2ccc(C(=O)N3CC(F)(F)C3)cc2)c2cc[nH]c2c1=O [Example 28, 4-[4-(3,3-difluoroazetidine-1-carbonyl)phenyl]-6-methyl-1H-pyrrolo[2,3-c]pyridin-7-one]",130
7,"Cn1cc(-c2ccc(C(=O)Nc3ccccc3)cc2)c2cc[nH]c2c1=O [Example 35, 4-(6-methyl-7-oxo-1H-pyrrolo[2,3-c]pyridin-4-yl)-N-phenyl-benzamide]",75
8,"CN1CCc2cc(-c3cn(C)c(=O)c4[nH]ccc34)ccc2C1 [Example 44, 6-methyl-4-(2-methyl-3,4-dihydro-1H-isoquinolin-6-yl)-1H-pyrrolo[2,3-c]pyridin-7-one]",54
9,"Cc1cc2c(-c3cccc(C(=O)N(C)C)c3)cn(C)c(=O)c2[nH]1 [Example 47, 3-(2,6-dimethyl-7-oxo-1H-pyrrolo[2,3-c]pyridin-4-yl)-N,N-dimethyl-benzamide]",130

# Target: TAF1-BD2 (Homo sapiens, UniProt P21675)
# Assay: TAF1-BD2 TR-FRET binding assay
# Details: Assay: TAF-1; biotinylated probe compound 1000, TR-FRET
# Protocol: Specifically, in a 384 well ProxiPlate TAF1-BD2 (6 nM final) was combined with biotin-ligand (50 nM final) in 50 mM HEPES (pH 7.5), 50 mM NaCl, 1 mM TCEP, 0.01% (w/v) BSA, and 0.008% (w/v) Brij-35 either in the presence of DMSO (final 0.2% DMSO) or compound dilution series in DMSO. After 10 minutes incubation at room temperature, a mixture Eu-W1024 Anti-6×His antibody (Perkin Elmer AD0110) and SureLight™ Allophycocyanin-Streptavidin (APC-SA, Perkin Elmer CR130-100) were added to a final concentrations of 0.2 nMolar antibody and 25 nMolar APC-SA, respectively. After twenty minutes of equilibration, the plates were read on an Envision instrument and IC50s calculated using a four parameter non-linear curve fit.
row,IC50 [nM],Structure (SMILES)
1,96,"CNC(=O)c1cccc(-c2cn(C)c(=O)c3[nH]ccc23)c1 [Example 24, N-methyl-3-(6-methyl-7-oxo-1H-pyrrolo[2,3-c]pyridin-4-yl)benzamide]"
